The test relates to pentagastrin stimulated gastric acid secretion. The test is described as follows: Rat Lumen Perfused Stomach (pentagastrin stimulated gastric acid secretion). In kind it is in vivo. Particulars: i.v., 10 μmole/kg. From the text:
B. Rat Lumen Perfused Stomach (pentagastrin stimulated gastric acid secretion).
Using a modification of the procedure described by Ghosh & Schild (Br. J. Pharmacology, 13, 54, 1958), the compounds of the following examples were found on i.v. administration at a concentration of 10 μmole/kg to cause an inhibition of pentagastrin stimulated gastric acid secretion a follows: […]

For the molecule `CCCC(=O)c1cnc2c(C(N)=O)cccc2c1Nc1ccccc1C` [Example 2, 3-butyryl-4-(2-methylphenylamino)quinoline-8-carboxamide], the “% inhibition of pentagastrin stimulated gastric acid secretion” value is on record as 39%.

Take `CCCC(=O)c1cnc2c(C(=O)OC)cccc2c1Nc1ccccc1C` [Example 1, methyl 3-butyryl-4-(2-methylphenylamino)quinoline-8-carboxylate]: the “% inhibition of pentagastrin stimulated gastric acid secretion” value turned out to be 42%.

For the origin of these results see patent US5089498A, “Substituted 4-aminoquinoline derivatives as gastric acid secretion inhibitors” (SmithKline Beckman Intercredit B.V., priority 1988, dated 1992).
